How the values were obtained:
WT NAMPT = target: T1, WT NAMPT (Homo sapiens, UniProt P43490); test: NAMPT enzymatic inhibition, wild-type protein (RapidFire/MS detection of NMN); settings: purified wild-type NAMPT 30 nM; 1 µM NAM, 100 µM PRPP, 2.5 mM ATP; read-out: Biochemical IC50, WT
T1 construct: An expression construct for full length human (XP_540386) NAMPT was constructed using pET21B; His6 (C); made in house; host or cells: E. coli Rosetta (DE3)

NAMPT G217V = target: T2, NAMPT G217V (Homo sapiens, UniProt P43490, G217V); test: NAMPT enzymatic inhibition, G217V mutant protein; settings: purified G217V NAMPT 30 nM; 1 µM NAM, 100 µM PRPP, 2.5 mM ATP; read-out: Biochemical IC50, G217V
T2 construct: An expression construct for full length human (XP_540386) NAMPT was constructed using pET21B; His6 (C); made in house; host or cells: E. coli Rosetta (DE3)

NAMPT G217R = target: T3, NAMPT G217R (Homo sapiens, UniProt P43490, G217R); test: NAMPT enzymatic inhibition, G217R mutant protein; settings: purified G217R NAMPT 30 nM; 1 µM NAM, 100 µM PRPP, 2.5 mM ATP; read-out: Biochemical IC50, G217R
T3 construct: An expression construct for full length human (XP_540386) NAMPT was constructed using pET21B; His6 (C); made in house; host or cells: E. coli Rosetta (DE3)

NAMPT G217A = target: T4, NAMPT G217A (Homo sapiens, UniProt P43490, G217A); test: NAMPT enzymatic inhibition, G217A mutant protein; settings: purified G217A NAMPT 30 nM; 1 µM NAM, 100 µM PRPP, 2.5 mM ATP; read-out: Biochemical IC50, G217A
T4 construct: An expression construct for full length human (XP_540386) NAMPT was constructed using pET21B; His6 (C); made in house; host or cells: E. coli Rosetta (DE3)

NAMPT S165F = target: T5, NAMPT S165F (Homo sapiens, UniProt P43490, S165F); test: NAMPT enzymatic inhibition, S165F mutant protein; settings: purified S165F NAMPT 30 nM; 1 µM NAM, 100 µM PRPP, 2.5 mM ATP; read-out: Biochemical IC50, S165F
T5 construct: An expression construct for full length human (XP_540386) NAMPT was constructed using pET21B; His6 (C); made in house; host or cells: E. coli Rosetta (DE3)

NAMPT S165Y = target: T6, NAMPT S165Y (Homo sapiens, UniProt P43490, S165Y); test: NAMPT enzymatic inhibition, S165Y mutant protein; settings: purified S165Y NAMPT 50 nM; 1 µM NAM, 100 µM PRPP, 2.5 mM ATP; read-out: Biochemical IC50, S165Y
T6 construct: An expression construct for full length human (XP_540386) NAMPT was constructed using pET21B; His6 (C); made in house; host or cells: E. coli Rosetta (DE3)

NAMPT H191R = target: T7, NAMPT H191R (Homo sapiens, UniProt P43490, H191R); test: NAMPT enzymatic inhibition, H191R mutant protein; settings: purified H191R NAMPT 30 nM; 1 µM NAM, 100 µM PRPP, 2.5 mM ATP; read-out: Biochemical IC50, H191R
T7 construct: An expression construct for full length human (XP_540386) NAMPT was constructed using pET21B; His6 (C); made in house; host or cells: E. coli Rosetta (DE3)

[1] = tested on: 293T cells expressing NAMPT S165F; test: Response of 293T cells expressing NAMPT S165F; type: cell-based; settings: NAMPT S165F expressed in 293T cells
[2] = tested on: 293T cells expressing NAMPT S165Y; test: Response of 293T cells expressing NAMPT S165Y; type: cell-based; settings: NAMPT S165Y expressed in 293T cells
RD cell line = test: Cellular IC50 in parental RD cell line; type: cell-based; settings: Homo sapiens, read-out: Parental GNE-618 IC50, NAPRT1 negative
NCI-H460 cell line = test: Cellular IC50 in parental NCI-H460 cell line; type: cell-based; settings: Homo sapiens, read-out: Parental GNE-618 IC50, NAPRT1 negative
Mia-Paca2 cell line = test: Cellular IC50 in parental Mia-Paca2 cell line; type: cell-based; settings: Homo sapiens, MIA PaCa-2, read-out: Parental GNE-618 IC50, NAPRT1 negative
NCI-H520 cell line = test: Cellular IC50 in parental NCI-H520 cell line; type: cell-based; settings: Homo sapiens, read-out: Parental GNE-618 IC50, NAPRT1 positive
[3] = tested on: RD cell line harboring only the D93 deletion; test: Cellular IC50 shift, RD resistant line (earlier passage) with D93 deletion only; type: cell-based; settings: cell line carrying D93del
[4] = tested on: GNE-618 resistant cell lines; test: Total cellular NAD in GNE-618 resistant cell lines; type: cell-based; settings: after GNE-618 at 100-fold the parental line IC50; all resistant lines except those harboring only D93del or S165Y
[5] = tested on: cell lines carrying S165Y (NCI-H460); test: Cellular IC50 shift, resistant cell line carrying S165Y; type: cell-based
[6] = tested on: GNE-618 resistant cell lines harboring mutations other than D93del only or S165Y; test: Cellular IC50 shift, resistant cell lines harboring the other mutations; type: cell-based; settings: cell lines harboring the other mutations (not D93del only or S165Y)
[7] = tested on: NCI-H460 tumor xenografts; test: NCI-H460 parental xenograft efficacy; type: in vivo, mice; settings: 100 mg/kg, oral, QD for 7 days, p = 0.007 vs. vehicle
[8] = Tolerability in xenograft-bearing mice; type: in vivo; settings: doses tested in NCI-H460 parental and S165Y mutant models, oral QD 7 days
[9] = tested on: RD cell line with the S165F mutation; settings: RD parent and S165F resistant line, ± 10 µM nicotinic acid
[10] = tested on: NCI-H460 S165Y tumor xenografts; test: NCI-H460 S165Y mutant xenograft efficacy; settings: oral QD, also at higher doses

T1 sequence (P43490 whole entry): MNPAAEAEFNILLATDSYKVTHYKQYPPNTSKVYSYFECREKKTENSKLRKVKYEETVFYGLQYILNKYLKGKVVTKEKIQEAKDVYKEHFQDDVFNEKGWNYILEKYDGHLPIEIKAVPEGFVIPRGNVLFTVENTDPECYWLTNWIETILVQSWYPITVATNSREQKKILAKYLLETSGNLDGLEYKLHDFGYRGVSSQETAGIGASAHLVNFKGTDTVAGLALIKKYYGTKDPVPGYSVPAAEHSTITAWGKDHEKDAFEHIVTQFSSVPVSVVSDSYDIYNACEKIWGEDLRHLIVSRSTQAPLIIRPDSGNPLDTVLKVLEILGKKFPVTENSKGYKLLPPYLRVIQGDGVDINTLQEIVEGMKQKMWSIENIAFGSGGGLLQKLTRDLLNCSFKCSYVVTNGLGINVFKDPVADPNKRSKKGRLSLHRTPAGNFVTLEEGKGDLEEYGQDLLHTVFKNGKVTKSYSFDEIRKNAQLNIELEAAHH
T7 sequence (P43490 whole entry H191R): as the sequence (P43490 whole entry) above, with H191R counted along it
T5 sequence (P43490 whole entry S165F): as the sequence (P43490 whole entry) above, with S165F counted along it
T6 sequence (P43490 whole entry S165Y): as the sequence (P43490 whole entry) above, with S165Y counted along it
T2 sequence (P43490 whole entry G217V): as the sequence (P43490 whole entry) above, with G217V counted along it
T4 sequence (P43490 whole entry G217A): as the sequence (P43490 whole entry) above, with G217A counted along it
T3 sequence (P43490 whole entry G217R): as the sequence (P43490 whole entry) above, with G217R counted along it

SMILES | IC50 (WT NAMPT) | IC50 (NAMPT G217V) | IC50 (NAMPT G217R) | IC50 (NAMPT G217A) | IC50 (NAMPT S165F) | IC50 (NAMPT S165Y) | IC50 (NAMPT H191R) | Sensitivity compared to wild-type NAMPT expression [1] | Sensitivity compared to wild-type NAMPT expression [2] | other results
O=C(NCc1ccc(S(=O)(=O)c2ccccc2)cc1)c1cnc2[nH]ncc2c1 [compound 4] | 80 nM | 4160 nM | > 5000 nM | > 5000 nM | 1930 nM | 2530 nM | > 5000 nM | – | – | –
N#CN=C(NCCCCCCOc1ccc(Cl)cc1)Nc1ccncc1 [compound 9] | – | – | – | – | – | – | – | more modest | more modest | –
O=C(NCc1ccc(S(=O)(=O)c2ccc(N3CCOCC3)nc2)cc1)c1cnc2[nH]ncc2c1 [compound 6] | 26 nM | > 5000 nM | > 5000 nM | > 5000 nM | 175 nM | 148 nM | > 5000 nM | – | – | –
O=C(NCc1ccc(S(=O)(=O)c2cccc(C(F)(F)F)c2)cc1)c1cnc2[nH]ncc2c1 [compound 1] | – | – | – | – | – | – | – | diminished sensitivity | diminished sensitivity | IC50 (RD cell line): 2 ± 0.2 nM; IC50 (NCI-H460 cell line): 197 ± 6 nM; IC50 (Mia-Paca2 cell line): 34 ± 2 nM; IC50 (NCI-H520 cell line): 9 ± 0.4 nM; Shift in IC50 vs parental [3]: less than 100 fold; Reduction of cellular NAD [4]: less than 90%; Shift in IC50 vs parental [5]: less than 100 fold; Increase in IC50 vs parental [6]: ≥ 100 fold; Tumor growth inhibition [7]: 54%; Tolerability (weight loss, morbidity, mortality) [8]: well tolerated; IC50 in the presence or absence of 10 µM NA [9]: not significantly different; Response of tumor xenografts to treatment [10]: completely resistant
O=C(/C=C/c1cccnc1)NCCCCC1CCN(C(=O)c2ccccc2)CC1 [compound 11] | – | – | – | – | – | – | – | more modest | more modest | –
O=C(NCc1ccc(S(=O)(=O)c2cccc(C(F)(F)F)c2)cc1)c1cc2cnccc2s1 [compound 2] | 5 nM | > 5000 nM | > 5000 nM | 191 nM | 15 nM | 21 nM | 2170 nM | – | – | –
CCN(C)c1ncc(S(=O)(=O)c2ccc(CNC(=O)c3cnc4[nH]ncc4c3)cc2)s1 [compound 7] | 7 nM | 3380 nM | > 5000 nM | 2050 nM | 42 nM | 115 nM | > 5000 nM | – | – | –

Reference: paper PMC4186856, “Structural Basis for Resistance to Diverse Classes of NAMPT Inhibitors” (PLoS ONE, 2014)
